Reference: patent US20220257592A1, “METHODS OF TREATING CANCER” (HOFFMANN-LA ROCHE INC., priority 2019, published 2022)

Legend:
[1] = test system: cancer having at least one molecular alteration in one or more of ALK, ROS1, TrkA, TrkB and TrkC; conditions: early clinical studies; cited from earlier work
TrkB = TrkB (Homo sapiens, UniProt Q16620); conditions: cited from earlier work
[2] = Expanded safety population (338 adult and 30 pediatric patients), fractures; type: in vivo, human
Excerpt: In adult patients, some fractures occurred in the setting of a fall or other trauma to the affected area, while in pediatric patients, all fractures occurred in patients with minimal or no trauma. In general, there was inadequate assessment for tumor involvement at the site of fracture; however, radiologic abnormalities possibly indicative of tumor involvement were reported in some patients. In both adult and pediatric patients, most fractures were hip or other lower extremity fractures (e.g., femoral or tibial shaft). In a limited number of patients, bilateral femoral neck fractures occurred. The median time to fracture was 3.8 months (range 0.3 to 18.5 months) in adults and 4.0 months (range: 1.8 months to 7.4 months) in pediatric patients.

Sequence of TrkB (Q16620 32-822): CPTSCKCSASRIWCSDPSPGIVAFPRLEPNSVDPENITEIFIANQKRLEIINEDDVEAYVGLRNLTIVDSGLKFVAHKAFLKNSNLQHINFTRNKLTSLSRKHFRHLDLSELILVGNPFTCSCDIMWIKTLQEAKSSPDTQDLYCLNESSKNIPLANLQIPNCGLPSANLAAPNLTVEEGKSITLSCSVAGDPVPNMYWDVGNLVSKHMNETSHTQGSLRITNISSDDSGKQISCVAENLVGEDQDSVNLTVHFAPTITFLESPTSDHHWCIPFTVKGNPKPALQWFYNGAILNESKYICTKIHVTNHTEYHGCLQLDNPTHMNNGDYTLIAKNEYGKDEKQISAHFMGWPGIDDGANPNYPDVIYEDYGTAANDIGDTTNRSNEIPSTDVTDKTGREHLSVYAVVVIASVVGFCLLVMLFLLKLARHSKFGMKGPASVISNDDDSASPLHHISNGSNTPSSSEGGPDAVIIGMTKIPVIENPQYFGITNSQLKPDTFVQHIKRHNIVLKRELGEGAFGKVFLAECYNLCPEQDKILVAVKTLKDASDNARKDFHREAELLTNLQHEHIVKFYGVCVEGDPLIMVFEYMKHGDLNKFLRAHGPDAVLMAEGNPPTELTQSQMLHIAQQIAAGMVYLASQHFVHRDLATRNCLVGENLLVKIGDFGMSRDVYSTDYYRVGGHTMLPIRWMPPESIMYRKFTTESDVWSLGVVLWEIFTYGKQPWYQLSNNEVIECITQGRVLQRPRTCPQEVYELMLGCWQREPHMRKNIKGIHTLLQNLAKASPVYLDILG

## CN1CCN(c2ccc(C(=O)Nc3n[nH]c4ccc(Cc5cc(F)cc(F)c5)cc34)c(NC3CCOCC3)c2)CC1 [Entrectinib, N-[5-(3,5-difluorobenzyl)-1H-indazol-3-yl]-4-(4-methyl-piperazin-1-yl)-2-(tetrahydro-pyran-4-ylamino)-benzamide]
[1]
  antitumor effects in patients: antitumor effects
TrkB
  inhibition of TrkB tyrosine kinase: potent inhibitor
[2]; 30 pediatric patients
  Fractures: 23%
[2]; 338 adult patients
  Fractures: 5%
[2]; adults
  Entrectinib interrupted due to fractures: 41%
[2]; adults, range 0.3 to 18.5 months
  Median time to fracture: 3.8 months
[2]; human, in vivo
  Discontinuation due to fractures: No patients discontinued
  Risk of fractures: increases the risk of fractures
[2]; pediatric patients
  Entrectinib interrupted due to fractures: 43%
[2]; pediatric patients, range: 1.8 months to 7.4 months
  Median time to fracture: 4.0 months
